Results taken from US10301292B2, “Bicyclic compound” (Takeda Pharmaceutical Company Limited, priority 2014, dated 2019).

Key:
[1] = tested on: human renal cancer cell line 786-O; test: Antitumor action on human renal cancer cell line 786-O tumor bearing mouse; format: in vivo; details: oral, 28 days, 786-O tumor bearing BALB/c nude mouse
Procedure: The antitumor action of the compound of the present invention on human renal cancer cell line 786-O tumor bearing mouse was evaluated by the following method.
Human renal cancer cell line 786-O (purchased from ATCC (American Type Culture Collection)) was transplanted to 6-week-old BALB/c female nude mouse (Shanghai SINO-British SIPPR/BK Lab Animal Ltd) at 3.0×10^6 cells by subcutaneous injection. After transplantation, the engrafted tumor was observed, the tumor diameter was measured on day 10 post-transplantation, and the tumor volume was calculated by the following formula. tumor volume=major axis×minor axis×minor axis×(1/2)
The mice having engrafted tumor with a volume size up to 150 mm^3 were selected and used for the experiment (8 per group). The test compound was suspended in 0.5% methylcellulose solution, and orally administered for 28 days at the dose and number of administration shown in the following Table. Finally, for the measurement of the drug effect, the tumor volume was calculated from the tumor diameter of the day before the start of the administration and the final day of the administration, and the tumor growth of the test compound administration group compared to that of the control administration group (T/C) was calculated by the following formula. T/C (%)=(tumor volume after completion of administration in test compound administration group−tumor volume before start of administration in test compound administration group)/(tumor volume after completion of administration in control administration group−tumor volume before start of administration in control administration group))×100
T/C (%) relative to human renal cancer cell line 786-O tumor bearing mouse at each dose and number of administration of the test compound (specifically, compound shown in Example 98) is shown below.

human ACC1 = molecular target: T1, human ACC1 (Homo sapiens, UniProt Q13085); test: Measurement of ACC1 inhibitory activity (Malonyl-CoA production, RapidFire-mass spectrometry); format: biochemical; details: 10 μM of the test compound; recombinant human ACC1; read-out: ACC1 inhibitory rate (%) at 10 μM
T1 construct: His tag (from vector pFAST-BacHTc; protein captured on Ni-NTA) (N); made in house; host or cells: SF-9 insect cells, recombinant baculovirus BAC-ACC1
How it was run: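 Sf9-expressed His-tagged human ACC1, diluted to 0.2 μg/ml in HEPES pH 7.5/MgCl2/citrate/DTT/0.001% BSA, was preincubated 60 min at RT with compound. Reaction started with substrate solution (50 mM KHCO3, 200 μM ATP, 200 μM acetyl-CoA), ran 30 min at RT, then was formic acid-quenched. Malonyl-CoA was quantified by RapidFire-MS against malonyl-13C3-CoA.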

- inhibition at 10 µM (human ACC1): 98%
SMILES: CC(NC(N)=O)c1ccc2nc(-c3ccc(Oc4cccc(OCC5CC5)c4)nc3)oc2c1 (stereo not shown) [Example 98, 1-(1-(2-(6-(3-(cyclopropylmethoxy)phenoxy)pyridin-3-yl)-1,3-benzoxazol-6-yl)ethyl)urea]
- T/C (%) ([1]; 0.3 mg/kg, 2 times per day): 50.6%
- T/C (%) ([1]; 1 mg/kg, 2 times per day): 37.0%
- T/C (%) ([1]; 3 mg/kg, 2 times per day): 31.1%
- T/C (%) ([1]; 10 mg/kg, 2 times per day): 4.5%
- T/C (%) ([1]; 20 mg/kg, 1 time per day): 19.0%
- T/C (%) ([1]; 30 mg/kg, 2 times per day): 0.5%
